Laboratory results reported in PMC12281424, “A Rac-specific competitive inhibitor of guanine nucleotide binding reduces metastasis in triple-negative breast cancer” (Cell Reports Medicine, 2025).
Values joined by “and” are separate entries in the source; they are usually repeats but may differ in a detail not shown here. Equal entries are not always repeated.

Key:
CLK2(h) = CLK2(h) (Homo sapiens, UniProt P49760); experiment: Kinase Profiler; format: biochemical
Description: (§3) The kinase profiler was performed by the company Eurofins (Discovery, Panlab and Cerep).

CaMKIIα(h) = CaMKIIα(h) (Homo sapiens, UniProt Q9UQM7); experiment: Kinase Profiler; format: biochemical
CaMKIIα(h), sequence (Q9UQM7 whole entry): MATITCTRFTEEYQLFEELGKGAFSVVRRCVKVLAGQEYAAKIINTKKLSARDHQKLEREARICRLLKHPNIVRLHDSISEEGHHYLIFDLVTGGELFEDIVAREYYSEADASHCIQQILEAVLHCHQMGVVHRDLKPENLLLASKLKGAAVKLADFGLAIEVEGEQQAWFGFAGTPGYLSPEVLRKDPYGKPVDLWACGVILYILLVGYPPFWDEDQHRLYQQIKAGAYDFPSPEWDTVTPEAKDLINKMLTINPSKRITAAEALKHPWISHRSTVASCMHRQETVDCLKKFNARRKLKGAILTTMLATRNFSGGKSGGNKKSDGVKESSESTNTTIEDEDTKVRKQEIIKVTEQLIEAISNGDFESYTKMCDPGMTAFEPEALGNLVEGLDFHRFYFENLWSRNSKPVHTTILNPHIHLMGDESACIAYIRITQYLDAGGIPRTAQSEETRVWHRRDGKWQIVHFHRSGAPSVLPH
Description: as §3

GRK1(h) = GRK1(h) (Homo sapiens, UniProt Q15835); experiment: Kinase Profiler; format: biochemical
GRK1(h), sequence (Q15835 whole entry): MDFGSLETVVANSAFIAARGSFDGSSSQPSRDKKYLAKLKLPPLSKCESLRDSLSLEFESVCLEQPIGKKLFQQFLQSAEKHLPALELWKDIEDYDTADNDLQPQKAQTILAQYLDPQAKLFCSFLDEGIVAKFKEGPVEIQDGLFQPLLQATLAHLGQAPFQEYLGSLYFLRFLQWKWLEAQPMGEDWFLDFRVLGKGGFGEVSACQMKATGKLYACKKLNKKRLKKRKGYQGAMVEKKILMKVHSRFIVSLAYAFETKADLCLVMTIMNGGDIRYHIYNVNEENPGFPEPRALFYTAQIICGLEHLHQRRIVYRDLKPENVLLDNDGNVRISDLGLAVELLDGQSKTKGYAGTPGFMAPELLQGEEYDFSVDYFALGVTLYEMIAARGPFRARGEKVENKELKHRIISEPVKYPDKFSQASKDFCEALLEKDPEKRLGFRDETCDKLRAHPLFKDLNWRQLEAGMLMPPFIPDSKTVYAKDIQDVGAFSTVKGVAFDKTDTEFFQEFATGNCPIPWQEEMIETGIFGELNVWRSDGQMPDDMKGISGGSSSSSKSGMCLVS
Description: (§4) Blood cell counts, kinase profiler, safety screen, bacterial cytotoxicity, Ames, micronucleus assays were performed by the company Eurofins (France). The kinase profiler was performed by the company Eurofins (Discovery, Panlab and Cerep).

CDK7/cyclinH/MAT1(h) = CDK7/cyclinH/MAT1(h) (Homo sapiens, UniProt P50613); experiment: Kinase Profiler; format: biochemical
CDK7/cyclinH/MAT1(h), sequence (P50613 whole entry): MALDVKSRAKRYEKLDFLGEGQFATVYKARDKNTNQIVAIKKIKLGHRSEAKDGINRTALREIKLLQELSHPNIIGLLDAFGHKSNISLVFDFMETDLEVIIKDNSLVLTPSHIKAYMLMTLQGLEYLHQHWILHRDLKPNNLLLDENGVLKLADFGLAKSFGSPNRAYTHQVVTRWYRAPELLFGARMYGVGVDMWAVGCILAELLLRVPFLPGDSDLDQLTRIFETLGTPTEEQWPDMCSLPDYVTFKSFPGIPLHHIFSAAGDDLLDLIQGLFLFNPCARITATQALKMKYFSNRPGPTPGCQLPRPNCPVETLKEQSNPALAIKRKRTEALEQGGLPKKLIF
CDK7/cyclinH/MAT1(h), sequence (P51946 whole entry partner): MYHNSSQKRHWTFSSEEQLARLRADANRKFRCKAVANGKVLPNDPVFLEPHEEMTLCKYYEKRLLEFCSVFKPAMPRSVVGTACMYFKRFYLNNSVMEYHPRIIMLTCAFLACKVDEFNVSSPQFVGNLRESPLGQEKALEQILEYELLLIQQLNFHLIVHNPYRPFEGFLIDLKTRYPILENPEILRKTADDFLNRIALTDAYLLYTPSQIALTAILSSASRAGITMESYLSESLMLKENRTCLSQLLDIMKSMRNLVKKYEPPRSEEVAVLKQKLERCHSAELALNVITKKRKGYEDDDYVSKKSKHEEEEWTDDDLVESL
CDK7/cyclinH/MAT1(h), sequence (P51948 whole entry partner): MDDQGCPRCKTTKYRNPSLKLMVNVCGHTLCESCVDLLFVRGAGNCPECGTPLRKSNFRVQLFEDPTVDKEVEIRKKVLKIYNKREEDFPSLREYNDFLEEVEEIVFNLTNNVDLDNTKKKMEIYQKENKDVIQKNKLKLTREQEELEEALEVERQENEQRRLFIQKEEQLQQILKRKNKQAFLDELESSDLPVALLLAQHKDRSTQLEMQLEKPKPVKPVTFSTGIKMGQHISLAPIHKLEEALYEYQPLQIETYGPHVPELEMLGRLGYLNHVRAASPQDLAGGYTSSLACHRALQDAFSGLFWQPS
Description: as §4

EGFR(L858R)(h) = EGFR(L858R)(h) (Homo sapiens, UniProt P00533, L858R); experiment: Kinase Profiler; format: biochemical
Description: as §3

TA1535 = experiment: Bacterial cytotoxicity; format: cell-based
From the text: (§1) Data S2. Bacterial cytotoxicity of A41.
(§2) Test Concentration %Effect Cytotoxicity (% of control) […]

TA100 = experiment: Bacterial cytotoxicity; format: cell-based
From the text: as §1, §2

Src(T341M)(h) = Src(T341M)(h) (Homo sapiens, UniProt P12931, T341M); experiment: Kinase Profiler; format: biochemical
Description: as §3

MAPK1(h) = MAPK1(h) (Homo sapiens, UniProt P27361); experiment: Kinase Profiler; format: biochemical
Description: as §3

cKit(D816V)(h) = cKit(D816V)(h) (Homo sapiens, UniProt P10721, D816V); experiment: Kinase Profiler; format: biochemical
Description: as §4

HIPK4(h) = HIPK4(h) (Homo sapiens, UniProt Q8NE63); experiment: Kinase Profiler; format: biochemical
Description: as §3

NEK7(h) = NEK7(h) (Homo sapiens, UniProt Q8TDX7); experiment: Kinase Profiler; format: biochemical
NEK7(h), sequence (Q8TDX7 whole entry): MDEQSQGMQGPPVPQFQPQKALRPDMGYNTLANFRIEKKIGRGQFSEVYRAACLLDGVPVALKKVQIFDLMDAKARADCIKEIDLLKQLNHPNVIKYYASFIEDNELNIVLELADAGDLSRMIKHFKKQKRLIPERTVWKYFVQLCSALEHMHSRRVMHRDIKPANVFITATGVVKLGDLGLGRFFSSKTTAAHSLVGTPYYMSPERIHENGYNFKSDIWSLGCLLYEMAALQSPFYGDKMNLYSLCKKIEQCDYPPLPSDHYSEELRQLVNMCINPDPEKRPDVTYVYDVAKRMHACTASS
Description: as §3

MAPKAP-K3(h) = MAPKAP-K3(h) (Homo sapiens, UniProt Q16644); experiment: Kinase Profiler; format: biochemical
Description: as §3

PKCθ(h) = PKCθ(h) (Homo sapiens, UniProt Q04759); experiment: Kinase Profiler; format: biochemical
PKCθ(h), sequence (Q04759 whole entry): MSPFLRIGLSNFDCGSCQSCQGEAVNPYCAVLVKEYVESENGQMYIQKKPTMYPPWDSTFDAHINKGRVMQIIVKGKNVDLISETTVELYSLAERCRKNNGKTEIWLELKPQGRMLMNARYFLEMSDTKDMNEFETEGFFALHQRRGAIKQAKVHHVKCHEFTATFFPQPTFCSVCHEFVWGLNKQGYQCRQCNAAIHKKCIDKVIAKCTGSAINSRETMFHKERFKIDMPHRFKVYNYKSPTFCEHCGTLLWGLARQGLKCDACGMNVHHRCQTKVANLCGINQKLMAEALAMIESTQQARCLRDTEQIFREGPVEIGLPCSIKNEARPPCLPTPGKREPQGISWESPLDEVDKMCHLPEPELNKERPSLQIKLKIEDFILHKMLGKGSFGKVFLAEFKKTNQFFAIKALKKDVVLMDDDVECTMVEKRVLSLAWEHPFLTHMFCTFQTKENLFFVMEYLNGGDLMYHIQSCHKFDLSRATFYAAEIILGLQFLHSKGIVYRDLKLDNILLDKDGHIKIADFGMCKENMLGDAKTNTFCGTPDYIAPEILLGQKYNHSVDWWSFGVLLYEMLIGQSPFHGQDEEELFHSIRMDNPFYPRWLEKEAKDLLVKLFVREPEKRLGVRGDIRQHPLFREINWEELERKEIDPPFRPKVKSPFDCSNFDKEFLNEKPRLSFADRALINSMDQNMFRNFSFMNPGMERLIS
Description: as §3

Tec(h) activated = Tec(h) activated (Homo sapiens, UniProt P42680); experiment: Kinase Profiler; format: biochemical
Description: as §4

Axl(h) = Axl(h) (Homo sapiens, UniProt P30530); experiment: Kinase Profiler; format: biochemical
Axl(h), sequence (P30530 26-894): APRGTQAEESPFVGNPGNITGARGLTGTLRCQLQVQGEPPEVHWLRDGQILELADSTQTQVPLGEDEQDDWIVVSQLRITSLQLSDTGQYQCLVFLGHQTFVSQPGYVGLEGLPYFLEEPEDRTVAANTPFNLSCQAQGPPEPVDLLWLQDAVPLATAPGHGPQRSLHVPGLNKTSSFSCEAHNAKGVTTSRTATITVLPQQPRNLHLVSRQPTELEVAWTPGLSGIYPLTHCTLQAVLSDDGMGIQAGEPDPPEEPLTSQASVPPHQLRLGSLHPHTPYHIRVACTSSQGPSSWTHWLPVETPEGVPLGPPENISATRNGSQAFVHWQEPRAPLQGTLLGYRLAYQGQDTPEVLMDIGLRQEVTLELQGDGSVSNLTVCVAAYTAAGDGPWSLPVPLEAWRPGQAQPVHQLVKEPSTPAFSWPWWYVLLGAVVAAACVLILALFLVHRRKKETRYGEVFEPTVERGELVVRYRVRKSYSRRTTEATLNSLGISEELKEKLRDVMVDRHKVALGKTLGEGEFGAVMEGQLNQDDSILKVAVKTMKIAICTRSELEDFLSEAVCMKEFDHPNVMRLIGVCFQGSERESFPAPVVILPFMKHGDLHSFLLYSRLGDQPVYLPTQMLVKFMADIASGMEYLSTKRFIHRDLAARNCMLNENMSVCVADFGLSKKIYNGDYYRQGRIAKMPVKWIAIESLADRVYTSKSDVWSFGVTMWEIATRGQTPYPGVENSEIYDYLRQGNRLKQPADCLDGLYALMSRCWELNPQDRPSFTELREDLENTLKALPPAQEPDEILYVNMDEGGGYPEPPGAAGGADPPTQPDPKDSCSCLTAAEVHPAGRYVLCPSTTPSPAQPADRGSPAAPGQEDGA
Description: as §4

FGFR1(V561M)(h) = FGFR1(V561M)(h) (Homo sapiens, UniProt P11362, V561M); experiment: Kinase Profiler; format: biochemical
Description: as §3

[1] = target: Transporter, Dopamine (DAT) (Homo sapiens, UniProt Q01959); experiment: Safety screen; format: binding
Description: Blood cell counts, kinase profiler, safety screen, bacterial cytotoxicity, Ames, micronucleus assays were performed by the company Eurofins (France).

MAPK2(m) = MAPK2(m) (Mus musculus, UniProt P63085); experiment: Kinase Profiler; format: biochemical
MAPK2(m), sequence (P63085 2-358 limits assumed): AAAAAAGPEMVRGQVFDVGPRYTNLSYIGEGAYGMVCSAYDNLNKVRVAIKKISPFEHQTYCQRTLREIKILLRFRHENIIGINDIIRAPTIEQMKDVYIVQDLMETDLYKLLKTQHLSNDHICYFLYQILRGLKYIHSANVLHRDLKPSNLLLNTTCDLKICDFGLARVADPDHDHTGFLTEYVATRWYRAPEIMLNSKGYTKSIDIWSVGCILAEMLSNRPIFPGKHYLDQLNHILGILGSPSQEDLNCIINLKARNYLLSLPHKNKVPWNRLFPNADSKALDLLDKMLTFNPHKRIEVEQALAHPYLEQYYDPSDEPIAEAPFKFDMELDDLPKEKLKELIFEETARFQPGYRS
Description: as §3

CaMKIδ(h) = CaMKIδ(h) (Homo sapiens, UniProt Q8IU85); experiment: Kinase Profiler; format: biochemical
Description: as §3

PIP5K1g(h) = PIP5K1g(h) (Homo sapiens, UniProt O60331); experiment: Kinase Profiler; format: biochemical
PIP5K1g(h), sequence (O60331 whole entry): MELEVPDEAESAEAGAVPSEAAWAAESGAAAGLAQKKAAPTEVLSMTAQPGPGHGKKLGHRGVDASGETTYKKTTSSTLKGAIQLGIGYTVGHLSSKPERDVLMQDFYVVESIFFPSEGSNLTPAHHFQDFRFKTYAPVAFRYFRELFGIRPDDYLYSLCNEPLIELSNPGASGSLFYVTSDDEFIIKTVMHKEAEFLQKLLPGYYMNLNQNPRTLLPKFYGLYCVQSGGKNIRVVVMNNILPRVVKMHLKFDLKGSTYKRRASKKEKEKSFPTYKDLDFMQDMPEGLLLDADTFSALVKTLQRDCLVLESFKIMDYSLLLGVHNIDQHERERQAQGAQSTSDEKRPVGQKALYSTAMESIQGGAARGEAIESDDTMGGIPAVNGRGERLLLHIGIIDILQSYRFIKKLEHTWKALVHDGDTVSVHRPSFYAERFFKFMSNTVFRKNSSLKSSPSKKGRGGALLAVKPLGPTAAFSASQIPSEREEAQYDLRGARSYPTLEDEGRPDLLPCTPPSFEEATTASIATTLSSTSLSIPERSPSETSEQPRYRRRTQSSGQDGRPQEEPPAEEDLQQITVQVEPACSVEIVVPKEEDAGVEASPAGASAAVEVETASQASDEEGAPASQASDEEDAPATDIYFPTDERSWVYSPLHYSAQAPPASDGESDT
Description: as §4

SMILES: COc1ccc(OC)c(NS(=O)(=O)c2ccc(NC(=O)CCSc3ccc(C)cc3)cc2)c1 [Compound A41]
- Activity(%) (CLK2(h)): 97%
- Activity(%) (CaMKIIα(h)): 99%
- Activity(%) (GRK1(h)): 103%
- Activity(%) (CDK7/cyclinH/MAT1(h)): 106%
- Activity(%) (EGFR(L858R)(h)): 104%
- %Effect, single replicates (1st, 2nd, 3rd) (TA1535; - S9, 1.0E-04 M): 219.4% and 233.3% and 215.9%
- Cytotoxicity (% of control), Mean %Effect (TA1535; - S9, 1.0E-04 M): 222.9%
- %Effect, single replicates (1st, 2nd, 3rd) (TA1535; - S9, 1.0E-05 M): 96.4% and 98.7% and 108.0%
- Cytotoxicity (% of control), Mean %Effect (TA1535; - S9, 1.0E-05 M): 101.0%
- %Effect, single replicates (1st, 2nd, 3rd) (TA1535; - S9, 1.2E-06 M): 91.7% and 97.5% and 88.2%
- Cytotoxicity (% of control), Mean %Effect (TA1535; - S9, 1.2E-06 M): 92.5%
- %Effect, single replicates (1st, 2nd, 3rd) (TA1535; - S9, 2.5E-05 M): 116.1% and 99.8% and 98.7%
- Cytotoxicity (% of control), Mean %Effect (TA1535; - S9, 2.5E-05 M): 104.9%
- %Effect, single replicates (1st, 2nd, 3rd) (TA1535; - S9, 2.5E-06 M): 92.9% and 91.7% and 97.5%
- Cytotoxicity (% of control), Mean %Effect (TA1535; - S9, 2.5E-06 M): 94.0%
- %Effect, single replicates (1st, 2nd, 3rd) (TA1535; - S9, 5.0E-05 M): 168.3% and 163.7% and 175.3%
- Cytotoxicity (% of control), Mean %Effect (TA1535; - S9, 5.0E-05 M): 169.1%
- %Effect, single replicates (1st, 2nd, 3rd) (TA1535; - S9, 5.0E-06 M): 96.4% and 95.2% and 99.8%
- Cytotoxicity (% of control), Mean %Effect (TA1535; - S9, 5.0E-06 M): 97.1%
- %Effect, single replicates (1st, 2nd, 3rd) (TA1535; - S9, 6.0E-07 M): 89.4% and 96.4% and 94.0%
- Cytotoxicity (% of control), Mean %Effect (TA1535; - S9, 6.0E-07 M): 93.3%
- %Effect, single replicates (1st, 2nd, 3rd) (TA100; - S9, 1.0E-04 M): 222.5% and 205.5% and 199.0%
- Cytotoxicity (% of control), Mean %Effect (TA100; - S9, 1.0E-04 M): 209.0%
- %Effect, single replicates (1st, 2nd, 3rd) (TA100; - S9, 1.0E-05 M): 116.5% and 108.6% and 92.9%
- Cytotoxicity (% of control), Mean %Effect (TA100; - S9, 1.0E-05 M): 106.0%
- %Effect, single replicates (1st, 2nd, 3rd) (TA100; - S9, 1.2E-06 M): 103.4% and 99.5% and 92.9%
- Cytotoxicity (% of control), Mean %Effect (TA100; - S9, 1.2E-06 M): 98.6%
- %Effect, single replicates (1st, 2nd, 3rd) (TA100; - S9, 2.5E-05 M): 113.9% and 111.3% and 100.8%
- Cytotoxicity (% of control), Mean %Effect (TA100; - S9, 2.5E-05 M): 108.6%
- %Effect, single replicates (1st, 2nd, 3rd) (TA100; - S9, 2.5E-06 M): 106.0% and 103.4% and 92.9%
- Cytotoxicity (% of control), Mean %Effect (TA100; - S9, 2.5E-06 M): 100.8%
- %Effect, single replicates (1st, 2nd, 3rd) (TA100; - S9, 5.0E-05 M): 112.6% and 53.1% and 102.1%
- %Effect, single replicates (1st, 2nd, 3rd) (TA100; - S9, 5.0E-06 M): 116.5% (2×) and 91.6%
- Cytotoxicity (% of control), Mean %Effect (TA100; - S9, 5.0E-06 M): 108.2%
- %Effect, single replicates (1st, 2nd, 3rd) (TA100; - S9, 6.0E-07 M): 104.7% (2×) and 98.2%
- Cytotoxicity (% of control), Mean %Effect (TA100; - S9, 6.0E-07 M): 102.5%
- Activity(%) (Src(T341M)(h)): 89%
- Activity(%) (MAPK1(h)): 103%
- Activity(%) (cKit(D816V)(h)): 88%
- Activity(%) (HIPK4(h)): 105%
- Activity(%) (NEK7(h)): 97%
- Activity(%) (MAPKAP-K3(h)): 112%
- Activity(%) (PKCθ(h)): 114%
- Activity(%) (Tec(h) activated): 112%
- Activity(%) (Axl(h)): 101%
- Activity(%) (FGFR1(V561M)(h)): 129%
- % inh. [1]: 30%
- Activity(%) (MAPK2(m)): 108%
- Activity(%) (CaMKIδ(h)): 94%
- Activity(%) (PIP5K1g(h)): 104%
